13 compounds from patent US20230212216A1, “SYNTHESIS OF LACTONE DERIVATIVES AND THEIR USE IN THE MODIFICATION OF PROTEINS” (priority 2019, published 2023) can be followed below.

The test system of series [1] is 6-AGDL acylated GSS-H6-Beltide-1. The protocol:
The volume was then made up to 15 mL to give a 1 M stock solution.
pH 6 buffer was made by preparing a 1 M stock solution of citric acid monohydrate and by making a solution of 1 M sodium citrate dihydrate. The two solutions were mixed to give a 1 M stock solution of pH 6.
pH 7.5 buffer was made by mixing a 1 M stock solution of potassium phosphate monobasic with 1 M solution of potassium phosphate dibasic to give a pH of 7.5.
pH 8.8 buffer was prepared by titrating 1 M solution of acetic acid with ammonium solution to give pH 8.8.
20 μM 6-AGDL modified peptide was stored in 100 μL aliquots in 200 mM buffer as indicated. The vials (triplicates) were incubated in a 37° C. water bath throughout the experiment and were retrieved for sample acquisition for <30 mins at room temperature before they were returned to the water bath.
10 μL of subsamples for pH 4, 6 and 8.8 were acidified with 5 μL of 20% (v/v) acetic acid and subjected to C18 ZipTip purification. Samples were analyzed in positive reflectron mode with MALDI-TOF MS.
pH 7.5 samples were stored in the presence of 10% ACN (v/v) to counteract precipitation. For pH 7.5 samples, 15 μL aliquots were taken for each time point and desalted using 0.1% TFA-70% ACN/0.1% TFA C18 Zip-Tip procedure. 0.5 μL of the Eluate was mixed 1:1 with C1CCA matrix mixture and spotted onto a MALDI steel target prior to detection in reflector positive mode MALDI-TOF MS.

Series [2] concerns N-terminally gluconoyl-labelled Beltide-1 derivative peptide PP6. As to the kind of experiment: Boron-containing reagents to modulate reversibility (heat-accelerated deacylation). The series is classed as physicochemical. To be noted: 5 mM additive, 50 μM peptide; for Remaining gluconoyl-label, pH 7.5 after 15 h at 50° C.: 50 mM HEPES/NaOH buffer; for Remaining gluconoyl-label, pH 6.8 after 15 h at 50° C.: 50 mM phosphate/KOH buffer. On the procedure: To explore the reversibility modulating effect of various boron-containing molecules, a small library of reagents was tested at pH 7.5 (50 mM HEPES/NaOH buffer) and pH 6.8 (50 mM phosphate/KOH buffer).
Reaction supplemented with 5 mM of additive; calculated as the ratio of the TIC for the labelled divided by the sum of TICs of both labelled and unlabeled species.

In another series the test system is serine protease trypsin. The settings on record: 50 mM boric acid.
Series [3] relates to non-activated HEK-produced RBD. The series is described as follows: Endpoint anti-RBD ELISA of sera of immunized mice. The settings on record: in vivo. More on the design: species or system SARS-CoV-2.
A further series deals with Pseudovirus. As to the kind of experiment: Pseudovirion neutralization assay. The class given is cell-based, SARS-CoV-2. To be noted: mice sera day 42, after a total of 3 immunizations. On the procedure: The conjugate material was then used to immunize mice at 10 μg per dose formulated in AddaVax (Invivogen) according to the manufacturer on Day 0. Boosts with the same dose and formulation were performed on day 14 and day 28. Sera samples were taken before each immunization for immunological studies. Animals were sacrificed on day 42.
Pseudovirion neutralization assays were performed with samples obtained at day 42 according to standard procedures known in the art.

A short description of series [4]: Reversibility of 6-AGDL acylated G-H6 and non-His-tagged peptides. The series is classed as physicochemical. The settings on record: 6-AGDL acylated peptide, 14 days at room temperature, 1M HEPES pH 7.5. On the procedure:
100 μM of G-H6-Beltide-1, GGKWSKR-Beltide-1 and GGTYSDH-Beltide-1 peptides were reacted at 4° C. with 6-AGDL in 1M HEPES, pH 7.5 by sequentially adding 100 mM 6-AGDL twice in 3 h intervals. Extra 6-AGDL was not removed, and the samples were stored at room temperature throughout the experiment.
2 μL from each sample were taken at each time point except for day 14. 10 μL of 2% acetic acid was added to each timepoint sample and the mixtures were desalted by C18 ZipTip chromatography. Eluate was analyzed by MALDI-TOF MS as before.
At day 14 the remaining samples underwent recovery procedure where all of the reaction mixtures were acidified by adding 20% of reaction volume of 50% (v/v) acetic acid [final concentration 7.57% acetic acid (v/v)] and then adding 10% reaction volume of 100% acetonitrile [final concentration ACN […]]. Of this mixture, 15 μL aliquots were taken, cleaned by ZipTip C18 Chromatography and analyzed by MALDI-TOF-MS instrumentation.

Series [5] has as its system GDL-acylated GSS-H6-Beltide-1 peptide. As to the kind of experiment: Effect of nickel ions on reversibility of acylation. The class given is physicochemical. The settings on record: 0.01-1 mM NiSO4, pH 7.5, 37° C., up to day 7. On the procedure:
GSS-H6-Beltide-1 peptide was GDL-acylated and extra GDL was removed via C18 SepPack chromatography. GDL-acylated peptide was dissolved in 100 mM HEPES (NaOH), pH 7.5, 10% ACN (v/v) to a final concentration of ˜100 μM and aliquoted into 0.5 mL LoBind (Eppendorf) microcentrifuge tubes. NiSO4 was supplemented to 0, 0.01, 0.1, and 1 mM final concentration from a 100 mM NiSO4 stock in H2O. A control sample was supplemented with a pre-mixed solution of NiSO4 and EDTA, to give a final concentration of 1 mM NiSO4 and 5 mM EDTA [stock solution 10 mM NiSO4 and 50 mM EDTA (NaOH neutralized)]. The samples (50 μL volume each) were kept in a water bath at 37° C. Aliquots of 2 μL were taken on day 1, 3, 5, and 7, mixed with 10 μL of 5% acetic acid, purified by C18 ZipTip chromatography and analyzed by MALDI-TOF-MS instrumentation.

The test system is the same in series [6]. The series is described as follows: Effect of zinc ions on reversibility of acylation. The series is classed as physicochemical. The settings on record: day 7. On the procedure: GSS-H6-Beltide-1 peptide was GDL-acylated and extra GDL was removed via C18 SepPack chromatography. GDL:peptide was dissolved in 100 mM HEPES (NaOH), pH 7.5 with or without ZnSO4 (0.2 mM and 2 mM) to a final concentration of ˜100 μM. ACN was added to 10% v/v to reduce possible nanodisc formation and precipitation of the peptide to the plastic microcentrifuge wall. The reaction mixtures (100 μL volume each) were kept in a water bath at 37° C. Aliquots of 2 μL were taken at day 3, mixed with 10 μL of 5% acetic acid, purified by C18 ZipTip chromatography and analyzed by MALDI-TOF-MS instrumentation. […] The remaining reaction mixture (80 μL) was acidified by adding 50% (v/v) acetic acid. The amount of acetic acid to be added was calculated as 20% of the remaining reaction volume [final concentration 7.57% acetic acid v/v]. Likewise, 10% reaction volume of 100% acetonitrile were added (final concentration acetonitrile ˜16.6% v/v) and the reaction was mixed by quick vortexing. Of this mixture, 15 μL aliquots were processed via C18 ZipTip chromatography and analyzed by MALDI-TOF-MS instrumentation. We speculate that the peptide had bound to the microcentrifuge wall and assumed that the precipitation affected both acylated and non-acylated species equally.

In series [7] the test system is GDL acylated G-H6-Beltide-1. As to the kind of experiment: Effect of copper ions on reversibility of acylation. The class given is physicochemical. The settings on record: various CuSO4 concentrations, pH 7.5, 37° C. The protocol: FIG. 3: Reversibility of GDL:G-H6-Beltide-1 in the presence of various CuSO4 and EDTA concentrations at pH 7.5. GDL acylated G-H6-Beltide-1 was produced as before, extra GDL was removed by C18 reverse phase purification and the acylated peptide (20 μM) was stored in 50 mM HEPES (NaOH) buffer supplemented with various concentrations of CuSO4 and EDTA at 37° C. Change in acylation status was monitored by MALDI-TOF MS TIC and is reported as the relative m/z ratio of the acylated (m1) and non-acylated species (m2) ([m1/z/(m1/z+m2/z)]*100%).
1 mM G-H6-Beltide-1 (˜1 mg of peptide) was acylated with 100 mM GDL in 200 mM HEPES (NaOH) pH 7.5 for 1 h at room temperature in a total volume of ˜300 μL. Upon addition of buffer to peptide but before addition of GDL, precipitation was clearly observed. This precipitation may be due to the theoretical pI of G-H6-Beltide-1 being close to pH 7.5, or because G-H6-Beltide-1 is a Beltide-1 variant. Beltide-1 is known to form nanodiscs in solution upon contact with membrane proteins or lipid components (Midtgaard et al. 2014; Martos-Maldonado et al. 2018). GDL was added to 100 mM from a freshly prepared 1 M stock solution. The solution remained cloudy. […] The acylated peptide was analyzed by MALDI-MS and initial acylation extent was estimated to be ˜96%, stored at −20° C. until further usage. […]

Where two headings read alike, the source gives them in different places. Where no end group is shown, it is not given here.

For the compound `OB(O)O` [boric acid, Boric acid], the reversibility of acylation result in [1] (>50 mM boric acid, pH 8.8, 7 days, 37° C.) was “effectively inhibited”; in series [1] (pH 4, 37° C.), “no effect was observed”; in series [1] (pH 6, 37° C.) it was “modulated the reversibility”. Besides, the “Remaining gluconoyl-label, pH 7.5 after 15 h at 50° C.” value in [2] is recorded as around 69%. Besides, the “Remaining gluconoyl-label, pH 6.8 after 15 h at 50° C.” value in series [2] is around 8%. Also, the inhibition of trypsin result in the series on serine protease trypsin was “did not measurably inhibit”. Take `CB(O)O` [methylboronic acid]: in series [2], the “Remaining gluconoyl-label, pH 7.5 after 15 h at 50° C.” value is around 59% and the “Remaining gluconoyl-label, pH 6.8 after 15 h at 50° C.” value is around 6%.

For `OB(O)c1ccccc1` [phenylboronic acid], in series [2], the “Remaining gluconoyl-label, pH 7.5 after 15 h at 50° C.” value was around 83% and the “Remaining gluconoyl-label, pH 6.8 after 15 h at 50° C.” value was around 31%. For `OB1OCc2cc(F)ccc21` [tavaborole, 5-Fluoro-1,3-dihydro-1-hydroxy-2,1-benzoxaborole] the same measures were around 87% and around 87.9%.

As for “Qbeta: Qbeta VLPs (SEQ ID NO: 86) produced in E. coli”, in series [3], the “anti-RBD response (ELISA titers) after a single injection” value is “did not show a measurable response”. Also, the “% of neutralization at dilution 1:300” value with Pseudovirus is on record as 17.24%. “GGTYSDHDWLKAFYDKVAEKLKEAF [GGTYSDH-Beltide-1]”: the remaining acylation in series [4] was found to be 75%.

Turning to “GGKWSKRDWLKAFYDKVAEKLKEAF [GGKWSKR-Beltide-1]”, in [4], the remaining acylation is listed as around 64%. In the case of `O=S(=O)([O-])[O-].[Ni+2]` [NiSO4], the reversibility of acylation entry in series [5] is “seemingly abolished reversibility”. `O=Cc1ccccc1B(O)O` [2-formylphenylboronic acid]: in [2], the “Remaining gluconoyl-label, pH 7.5 after 15 h at 50° C.” value is listed as around 99% and the “Remaining gluconoyl-label, pH 6.8 after 15 h at 50° C.” value is reported as around 95%. As to GHHHHHHDWLKAFYDKVAEKLKEAF [PP1], in series [4], the remaining acylation was 27%. For the compound `O=Cc1ccc(B(O)O)cc1` [4-formylphenylboronic acid], in series [2], the “Remaining gluconoyl-label, pH 7.5 after 15 h at 50° C.” value is on record as around 95% and the “Remaining gluconoyl-label, pH 6.8 after 15 h at 50° C.” value is around 46%. For `O=S(=O)([O-])[O-].[Zn+2]` [ZnSO4], the remaining gluconoylation in series [6] (0.2 mM ZnSO4, pH 7.5, 37° C.) was around 80%; in [6] (2 mM ZnSO4, pH 7.5, 37° C.), around 75%. For the compound `O=S(=O)([O-])[O-].[Cu+2]` [CuSO4], the rate of reversibility result in series [7] is given as “decreasing rate of reversibility as a function of increasing CuSO4 concentration”.
